“And” between values parts separate entries of the source, which are not always exact repeats. Equal entries are not always repeated. Toxic doses and inconclusive results are not listed. Cut-off read from the data, not from the text of the source: active = T/C of 150% or more; inactive = T/C below 125%.
System: L1210 leukemia ip in BDF1 mice, survival T/C
Assay: NCI In Vivo Anticancer Drug Screen. Data for tumor model L1210 Leukemia (intraperitoneal) in B6D2F1 (BDF1) mice
Conditions: endpoint: mean survival time, higher = longer survival
Experimental: The antitumor activity of compounds was measured in mice bearing transplantable tumors. Survival or tumor size were measured and the results are expressed as the measurement made in the treated group (T) divided by the measurement made in the vehicle treated control group (C). The tumor model used in this assay is L1210 Leukemia (intraperitoneal) in B6D2F1 (BDF1) mice

[1] = dose: 100.0 mg/kg/injection, schedule: Q01DX001 (ip), vehicle: saline with Tween-80
[2] = dose: 100.0 mg/kg/injection, schedule: Q01DX009 (ip), vehicle: saline with Tween-80
[3] = dose: 100.0 mg/kg/injection, schedule: Q04DX002 (ip), vehicle: saline with Tween-80
[4] = dose: 100.0 mg/kg/injection, schedule: Q04DX003 (ip), vehicle: saline with Tween-80
[5] = dose: 200.0 mg/kg/injection, schedule: Q01DX001 (ip), vehicle: saline with Tween-80
[6] = dose: 200.0 mg/kg/injection, schedule: Q01DX009 (ip), vehicle: saline with Tween-80
[7] = dose: 200.0 mg/kg/injection, schedule: Q04DX002 (ip), vehicle: saline with Tween-80
[8] = dose: 400.0 mg/kg/injection, schedule: Q01DX001 (ip), vehicle: saline with Tween-80
[9] = dose: 400.0 mg/kg/injection, schedule: Q01DX009 (ip), vehicle: saline with Tween-80
[10] = dose: 400.0 mg/kg/injection, schedule: Q04DX002 (ip), vehicle: saline with Tween-80
[11] = dose: 400.0 mg/kg/injection, schedule: Q04DX003 (ip), vehicle: saline with Tween-80
[12] = dose: 50.0 mg/kg/injection, schedule: Q01DX009 (ip), vehicle: saline
[13] = dose: 100.0 mg/kg/injection, schedule: Q01DX001 (ip), vehicle: saline
[14] = dose: 25.0 mg/kg/injection, schedule: Q01DX009 (ip), vehicle: Klucel (hydroxypropylcellulose) (HPC)
[15] = dose: 50.0 mg/kg/injection, schedule: Q01DX009 (ip), vehicle: Klucel (hydroxypropylcellulose) (HPC)
[16] = dose: 100.0 mg/kg/injection, schedule: Q01DX009 (ip), vehicle: Klucel (hydroxypropylcellulose) (HPC)
[17] = dose: 200.0 mg/kg/injection, schedule: Q01DX009 (ip), vehicle: Klucel (hydroxypropylcellulose) (HPC)
[18] = dose: 100.0 mg/kg/injection, schedule: Q01DX009 (ip), vehicle: saline
[19] = dose: 200.0 mg/kg/injection, schedule: Q01DX009 (ip), vehicle: saline
[20] = dose: 200.0 mg/kg/injection, schedule: Q04DX003 (ip), vehicle: saline with Tween-80
[21] = dose: 200.0 mg/kg/injection, schedule: Q01DX001 (ip), vehicle: saline
[22] = dose: 400.0 mg/kg/injection, schedule: Q01DX001 (ip), vehicle: saline

Measured: T/C

CC(=O)Nc1ccc(NC(=O)Nc2cc(C)ccc2C)cc1
inactive: dose: 25.0 mg/kg/injection, schedule: Q04DX003 (ip), vehicle: saline with Tween-80 91 % of control | dose: 50.0 mg/kg/injection, schedule: Q04DX003 (ip), vehicle: saline with Tween-80 89 % of control | [1] 91 % of control | [2] 92 % of control and 86 % of control | [3] 90 % of control and 91 % of control | [4] 91 % of control | [5] 89 % of control | [6] 99 % of control and 91 % of control | [7] 87 % of control and 90 % of control | [8] 89 % of control | [9] 92 % of control and 100 % of control | [10] 89 % of control and 91 % of control | [11] 87 % of control

O=C(NOS(=O)(=O)O)c1ccccc1
inactive: dose: 25.0 mg/kg/injection, schedule: Q01DX001 (ip), vehicle: saline 94 % of control | dose: 25.0 mg/kg/injection, schedule: Q01DX009 (ip), vehicle: saline 110 % of control | dose: 25.0 mg/kg/injection, schedule: Q04DX003 (ip), vehicle: saline 98 % of control | dose: 50.0 mg/kg/injection, schedule: Q01DX001 (ip), vehicle: saline 99 % of control | [12] 97 % of control | dose: 50.0 mg/kg/injection, schedule: Q04DX003 (ip), vehicle: saline 100 % of control | [13] 100 % of control and 104 % of control | dose: 100.0 mg/kg/injection, schedule: Q04DX003 (ip), vehicle: saline 100 % of control

[Se]=P(N1CCCCC1)(N1CCCCC1)N1CCCCC1
inactive: [14] 98 % of control | [15] 104 % of control | [16] 87 % of control

O=C(/C=C/c1ccccc1)N/N=C/c1ccccc1Cl
inactive: dose: 50.0 mg/kg/injection, schedule: Q04DX002 (ip), vehicle: Klucel (hydroxypropylcellulose) (HPC) 108 % of control | dose: 100.0 mg/kg/injection, schedule: Q04DX002 (ip), vehicle: Klucel (hydroxypropylcellulose) (HPC) 100 % of control and 116 % of control | dose: 200.0 mg/kg/injection, schedule: Q04DX002 (ip), vehicle: Klucel (hydroxypropylcellulose) (HPC) 111 % of control | dose: 400.0 mg/kg/injection, schedule: Q04DX002 (ip), vehicle: Klucel (hydroxypropylcellulose) (HPC) 101 % of control and 110 % of control

C=CCNC(=S)N(C)Cc1ccccc1Cl
inactive: [16] 90 % of control | [17] 98 % of control

CCOC(=O)c1[nH]c2ccccc2c1CN(CCCl)CCCl
inactive: dose: 2.5 mg/kg/injection, schedule: Q01DX Z (ip), vehicle: saline 107 % of control | dose: 5.0 mg/kg/injection, schedule: Q01DX Z (ip), vehicle: saline 108 % of control | dose: 10.0 mg/kg/injection, schedule: Q01DX Z (ip), vehicle: other 120 % of control | dose: 10.0 mg/kg/injection, schedule: Q01DX Z (ip), vehicle: saline 120 % of control | dose: 20.0 mg/kg/injection, schedule: Q01DX Z (ip), vehicle: other 122 % of control

COc1ccc(OC=O)cc1OC
inactive: [12] 98 % of control | [18] 102 % of control | dose: 100.0 mg/kg/injection, schedule: Q04DX003 (ip), vehicle: acetone 97 % of control | [19] 101 % of control | dose: 200.0 mg/kg/injection, schedule: Q04DX003 (ip), vehicle: acetone 107 % of control

SCc1ccc(Br)cc1
inactive: dose: 100.0 mg/kg/injection, schedule: Q01DX001 (ip), vehicle: carboxymethylcellulose (CMC) 104 % of control | dose: 200.0 mg/kg/injection, schedule: Q01DX001 (ip), vehicle: carboxymethylcellulose (CMC) 98 % of control | dose: 400.0 mg/kg/injection, schedule: Q01DX001 (ip), vehicle: carboxymethylcellulose (CMC) 104 % of control

Cc1ccc(Cl)cc1NC(=O)NCc1cccnc1
inactive: [1] 93 % of control | [2] 103 % of control and 91 % of control | [3] 106 % of control and 88 % of control | [4] 107 % of control | [5] 90 % of control | [6] 104 % of control and 92 % of control | [7] 95 % of control and 89 % of control | [20] 100 % of control | [8] 90 % of control | [9] 96 % of control and 113 % of control | [10] 95 % of control and 91 % of control | [11] 103 % of control

CCCCCCCCCCCCCCCCC(C(=O)OC)S(=O)(=O)O (configuration not stated)
inactive: dose: 100.0 mg/kg/injection, schedule: Q04DX002 (ip), vehicle: saline 102 % of control | dose: 200.0 mg/kg/injection, schedule: Q04DX002 (ip), vehicle: saline 124 % of control | dose: 400.0 mg/kg/injection, schedule: Q04DX002 (ip), vehicle: saline 102 % of control

COc1ccc2c(c1)CNC1c3cc(OC)c(O)cc3CC21 (configuration not stated)
inactive: [20] 88 % of control

Cc1cc(SC#N)ccc1O
inactive: dose: 3.0 mg/kg/injection, schedule: Q01DX009 (ip), vehicle: saline with Tween-80 94 % of control | dose: 6.0 mg/kg/injection, schedule: Q01DX009 (ip), vehicle: saline with Tween-80 102 % of control | dose: 12.0 mg/kg/injection, schedule: Q01DX009 (ip), vehicle: saline with Tween-80 102 % of control | dose: 25.0 mg/kg/injection, schedule: Q01DX009 (ip), vehicle: saline with Tween-80 102 % of control | dose: 25.0 mg/kg/injection, schedule: Q04DX002 (ip), vehicle: other 93 % of control | dose: 50.0 mg/kg/injection, schedule: Q04DX002 (ip), vehicle: other 93 % of control | dose: 100.0 mg/kg/injection, schedule: Q04DX002 (ip), vehicle: other 97 % of control

CCCCCCC(C)C1CCCCC1 (configuration not stated)
inactive: [1] 96 % of control | [5] 93 % of control | [8] 93 % of control

CCCCCCN(CCCCCC)CCCCCC
inactive: dose: 8.0 mg/kg/injection, schedule: Q01DX015 (ip), vehicle: carboxymethylcellulose (CMC) 97 % of control | dose: 16.0 mg/kg/injection, schedule: Q01DX015 (ip), vehicle: carboxymethylcellulose (CMC) 100 % of control | dose: 32.0 mg/kg/injection, schedule: Q01DX015 (ip), vehicle: carboxymethylcellulose (CMC) 102 % of control | dose: 64.0 mg/kg/injection, schedule: Q01DX015 (ip), vehicle: carboxymethylcellulose (CMC) 96 % of control | [13] 97 % of control | dose: 128.0 mg/kg/injection, schedule: Q01DX015 (ip), vehicle: carboxymethylcellulose (CMC) 97 % of control | [21] 106 % of control | [22] 100 % of control

Cc1cc(S(=O)(=O)O)cc(N)c1N
inactive: dose: 100.0 mg/kg/injection, schedule: Q01DX001 (ip), vehicle: Klucel (hydroxypropylcellulose) (HPC) 105 % of control | dose: 200.0 mg/kg/injection, schedule: Q01DX001 (ip), vehicle: Klucel (hydroxypropylcellulose) (HPC) 98 % of control | dose: 400.0 mg/kg/injection, schedule: Q01DX001 (ip), vehicle: Klucel (hydroxypropylcellulose) (HPC) 91 % of control

NC(=O)Cn1cnc2c(N)ncnc21
inactive: [4] 95 % of control | [20] 95 % of control | [11] 101 % of control

C=CCNC(=S)Nc1cccc(O)c1
inactive: [16] 95 % of control | [17] 104 % of control | dose: 400.0 mg/kg/injection, schedule: Q01DX009 (ip), vehicle: Klucel (hydroxypropylcellulose) (HPC) 107 % of control

S=c1[nH]c2ccc(Cl)cc2s1
inactive: [14] 101 % of control | dose: 25.0 mg/kg/injection, schedule: Q04DX003 (ip), vehicle: Klucel (hydroxypropylcellulose) (HPC) 115 % of control | [15] 97 % of control | dose: 50.0 mg/kg/injection, schedule: Q04DX003 (ip), vehicle: Klucel (hydroxypropylcellulose) (HPC) 106 % of control | [16] 97 % of control | dose: 100.0 mg/kg/injection, schedule: Q04DX003 (ip), vehicle: Klucel (hydroxypropylcellulose) (HPC) 96 % of control

O=C(O)C(=O)/C=C/c1cccc([N+](=O)[O-])c1
inactive: [13] 96 % of control | [18] 106 % of control | [21] 96 % of control | [19] 95 % of control | [22] 102 % of control

Source: PubChem BioAssay AID248 (DTP/NCI, 2004)
